Experimental data reported in patent publication US20260373226A1, “METHODS AND COMPOSITIONS FOR THE TREATMENT OF NEURODEGENERATIVE DISEASE” (Stealth BioTherapeutics Inc., priority 2022, published 2026).

Experiments:
[1] = Tolerability in nonhuman primates, 10 daily SC injections; type: in vivo, cynomolgus monkey; settings: 10 days
Experimental: (§1) Pharmacokinetic profile of SBT-272 in nonhuman primate plasma, CSF, and brain. The objective of this study was to determine the pharmacokinetic profile of SBT-272 in CSF and plasma when delivered by subcutaneous (SC) injection for 10 days to cynomolgus monkeys. SBT-272 solution was administered daily by SC injection for 10 days. The following parameters and endpoints were evaluated in this study: mortality, clinical observations, body weights, pharmacokinetic samples (CSF and plasma), and selected tissue collection. There was no mortality during the study. […] Additional details regarding the experimental protocol are provided below.
Test System. Details Regarding the Test System are Provided Below: • Species: Nonhuman primate • Strain/Breed: Cynomolgus monkey • Animal Condition: Non-naïve • Animal Procurement Method: In-house colony • Animal Supplier: Charles River Laboratories • Animal Supplier Location: 531 Boul des Prairies, Laval, QC H7V 1B7, Canada • Animal Origin: Asia • Number of Males: 3 • Age at the Initiation of Dosing: 18 to 60 months • Weight at the Initiation of Dosing: 1.4 to 5.0 kg
• Route of Administration: Subcutaneous injection into the scapular and mid-dorsal areas • Treatment Frequency: Daily • Treatment Duration: 10 days • Method: The first day of dosing is designated as Day 1. Dose formulations are allowed to warm up at ambient temperature for at least 30 minutes prior to dosing, as appropriate. The animals are temporarily restrained for dose administration and are not be sedated. The volume for each dose is administered over 1 (preferred) or 2 (as necessary) separate injections within the designated area. Injection sites are rotated daily (see FIG. 4B). If a designated subcutaneous test site is not available for a given animal on any day, then the next available test site in the rotation should be used for dosing. The injection area is marked as frequently as required to allow appropriate visualization of administration sites. Hair may be clipped or shaved if required to improve visualization of the injection sites. […]

[2] = test system: models of neurodegeneration; assay: In vivo effect brain concentration (in vitro-in vivo correlation)
Text: See Guatam M., Platform presentation. NEALS, 2022. […] See Keefe, et al. (2019); Gautam, et al. (2022); Guatam, et al. (2021). Gautam, et al., SBT-272 improved mitochondria structure and function and preserved upper motor neurons with TDP-43 pathology, Platform poster presentation, presented at NEALS poster session (2022); Bido, et al. (2021); Silva, et al. (2022); and Zariwala, et al., Effects of the mitochondria-targeting small molecule SBT-272 in the R6/2 transgenic mice of Huntington's Disease, Poster presented at Keystone Symposia poster Session, 2022.

[3] = Time-concentration profile in plasma, CSF and brain, rat versus nonhuman primate; type: in vivo; settings: FIGS. 4A and 4C; equivalent dose levels, single or repeated SC dosing
Experimental: Pharmacokinetic profile of SBT-272 in rat plasma, CSF, and brain (for FIG. 4A). Briefly, as described elsewhere herein, male Sprague-Dawley (SD) rats were subcutaneously administered a single, 10 mg/kg dose of SBT-272. Plasma, CSF, and brain (microdialysis) samples were obtained at the time points indicated on FIG. 4A and analyzed for SBT-272 concentration by HPLC with tandem mass spectrometry (HPLC-MS/MS).
as §1

[4] = SBT-272 level in brain homogenates after ET-1 injection; type: in vivo; settings: rat hemibrain, 24 hours after final treatment
Text: FIG. 2B is a schematic showing the experimental design. Dotted lines indicate left and right subsection of hemibrain used for RCR and PK analysis (FIG. 2B). FIG. 2C: individual respiratory control ratios (RCR) per animal (n=8 per group) from the stroke-induced subsection of the right hemisphere. FIG. 2D: SBT-272 level in the brain homogenates from the same hemisphere after ET-1 injection. ET1=endothelin-1, vasoconstrictive peptide (*P<0.05, Kruskal-Wallis followed by Dunn's test).
Improved respiratory control ratio after cerebral ischemia reperfusion. To assess its pharmacodynamic effect on mitochondrial function in the brain, SBT-272 was tested in a rat model of acute ischemia. The mitochondrial effects of SBT-272 were determined using the respiratory control ratio (RCR), the ratio of coupled respiration (supporting oxidative phosphorylation) to respiratory rate in the absence of ADP (“leak” respiration). The high mitochondrial RCR in sham-treated animals (9.0±0.1) confirmed that the mitochondrial were healthy, as the majority of respiration accounted for replenishing cellular ATP levels (FIG. 2C).

[5] = Brain exposure PK in rats after single SC dose; type: in vivo; settings: rat; single 5 mg/kg SC
Experimental: FIG. 2A is a chart showing the in vivo pharmacokinetic (PK) and pharmacodynamic (PD) response to SBT-272 brain exposure in rats. Rat brain SBT-272 concentrations up to 36 hours after a single dose of SBT-272 (5 mg/kg; subcutaneous (SC); n=8 rats per time-point).
Evaluation of SBT-272 exposure in brain tissues after subcutaneous dosing. Brain tissues were collected, at various time points (see FIG. 2A) following a single 5 mg/kg subcutaneous (SC) administration of SBT-272 (n=8 rats per time point).
Briefly, issues samples were weighed in 2 mL microcentrifuge tubes (micro tube 2 mL, low protein binding, with screw cap, REF 72.694.600 (Sarstedt, Germany), weight of tissues was recorded in the study file. The centrifuge tubes were kept on ice throughout the procedure. Four times tissue weight purified deionized water with 0.1% formic acid (v/w) was added. Two metal beads were placed in each microcentrifuge tube (Metal Bead Lysing Matrix Bulk, MP, USA). Brain tissues were homogenized using Bead Ruptor (Omni International, USA) for 60 seconds using a speed of […] per cycle. Homogenates (96 μL) were transferred to […] microcentrifuge tubes with surface that minimized binding (REF 04-212-3500, Nerbe Plus, Germany). Homogenates were frozen and kept at −80 °C until sample extraction for LC/MS/MS analysis. Two samples (twice 96 μL) collected, one kept if repeat required. […]

## Cc1cc(O)cc(C)c1C[C@H](NC(=O)[C@H](N)CCCNC(=N)N)C(=O)N[C@@H](CCCCN)c1nc(Cc2ccccc2)no1 [SBT-272, (R)-2-amino-N—((S)-1-(((S)-5-amino-1-(3-benzyl-1,2,4-oxadiazol-5-yl)pentyl)amino)-3-(4-hydroxy-2,6-dimethylphenyl)-1-oxopropan-2-yl)-5-guanidinopentanamide]
[1]; 5 mg/kg/day SC
  body weight differences related to administration: no differences in body weights
  mortality: no mortality
[1]; SC injection at 5 mg/kg/day
  tolerability: well tolerated
[2]; FIG. 3B
  optimal in vivo effects, concentration: 10 to 100 nM
[2]; from in vitro and in vivo correlations
  brain concentration as a potential target for pharmacodynamic effect: 10 to 100 nM
[3]
  time-concentration profile in plasma, CSF, and brain, rat versus nonhuman primate: very similar in rat and nonhuman primate
[4]
  brain concentration, dose relation: dose proportional
[5]
  brain penetration / biodistribution across the blood-brain-barrier: brain penetrant and exhibited optimized biodistribution across the blood-brain-barrier
